#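 Dose response: 5 concentrations. Exposure: 48 h. Format: 96-well plates. Endpoint: linear interpolation; highest concentration if not reached. The concentration for full growth arrest is given as TGI.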
# Test system: SK-MEL-2 melanoma
# Experiment: inhibition of tumour cell growth, NCI panel, 48 h
row,Structure (SMILES),TGI
1,COc1ccc(Cn2c3c(cc(OC(C)=O)c2=O)Cc2ccccc2-3)cc1,23.9 µM
2,N#Cc1ccc(-c2nc3c(N)ncnc3o2)cc1,> 100 µM

# Test system: IGROV1 ovarian
# Experiment: inhibition of tumour cell growth, NCI panel, 48 h
row,Structure (SMILES),TGI
1,OC(CNc1ccccn1)c1ccccc1 (stereo unspecified),> 100 µM
2,O=C(CSc1nnc(-c2ccccn2)s1)N/N=C/c1ccccc1,> 100 µM
3,COc1ccc(Cn2c3c(cc(OC(C)=O)c2=O)Cc2ccccc2-3)cc1,20.3 µM
4,N#Cc1ccc(-c2nc3c(N)ncnc3o2)cc1,> 100 µM

# Test system: SK-MEL-28 melanoma
# Experiment: inhibition of tumour cell growth, NCI panel, 48 h
row,Structure (SMILES),TGI
1,OC(CNc1ccccn1)c1ccccc1 (stereo unspecified),> 100 µM
2,O=C(CSc1nnc(-c2ccccn2)s1)N/N=C/c1ccccc1,> 100 µM
3,COc1ccc(Cn2c3c(cc(OC(C)=O)c2=O)Cc2ccccc2-3)cc1,> 50 µM
4,N#Cc1ccc(-c2nc3c(N)ncnc3o2)cc1,> 100 µM

# Test system: HCT-116 colon
# Experiment: inhibition of tumour cell growth, NCI panel, 48 h
row,Structure (SMILES),TGI
1,OC(CNc1ccccn1)c1ccccc1 (stereo unspecified),> 100 µM
2,O=C(CSc1nnc(-c2ccccn2)s1)N/N=C/c1ccccc1,> 100 µM
3,COc1ccc(Cn2c3c(cc(OC(C)=O)c2=O)Cc2ccccc2-3)cc1,13.2 µM
4,N#Cc1ccc(-c2nc3c(N)ncnc3o2)cc1,> 100 µM

# Test system: SK-OV-3 ovarian
# Experiment: inhibition of tumour cell growth, NCI panel, 48 h
row,Structure (SMILES),TGI
1,OC(CNc1ccccn1)c1ccccc1 (stereo unspecified),> 100 µM
2,O=C(CSc1nnc(-c2ccccn2)s1)N/N=C/c1ccccc1,> 100 µM
3,COc1ccc(Cn2c3c(cc(OC(C)=O)c2=O)Cc2ccccc2-3)cc1,> 50 µM

# Test system: A549 NSCLC
# Experiment: inhibition of tumour cell growth, NCI panel, 48 h
row,Structure (SMILES),TGI
1,OC(CNc1ccccn1)c1ccccc1 (stereo unspecified),> 100 µM
2,O=C(CSc1nnc(-c2ccccn2)s1)N/N=C/c1ccccc1,> 100 µM
3,COc1ccc(Cn2c3c(cc(OC(C)=O)c2=O)Cc2ccccc2-3)cc1,> 50 µM
4,N#Cc1ccc(-c2nc3c(N)ncnc3o2)cc1,> 100 µM

# Test system: RPMI-8226 leukemia
# Experiment: inhibition of tumour cell growth, NCI panel, 48 h
row,Structure (SMILES),TGI
1,OC(CNc1ccccn1)c1ccccc1 (stereo unspecified),> 100 µM
2,N#Cc1ccc(-c2nc3c(N)ncnc3o2)cc1,> 100 µM

# Test system: HS 578T breast
# Experiment: inhibition of tumour cell growth, NCI panel, 48 h
row,Structure (SMILES),TGI
1,OC(CNc1ccccn1)c1ccccc1 (stereo unspecified),> 100 µM
2,O=C(CSc1nnc(-c2ccccn2)s1)N/N=C/c1ccccc1,> 100 µM
3,COc1ccc(Cn2c3c(cc(OC(C)=O)c2=O)Cc2ccccc2-3)cc1,> 50 µM
4,N#Cc1ccc(-c2nc3c(N)ncnc3o2)cc1,> 100 µM

# Test system: SK-MEL-5 melanoma
# Experiment: inhibition of tumour cell growth, NCI panel, 48 h
row,Structure (SMILES),TGI
1,OC(CNc1ccccn1)c1ccccc1 (stereo unspecified),> 100 µM
2,O=C(CSc1nnc(-c2ccccn2)s1)N/N=C/c1ccccc1,> 100 µM
3,COc1ccc(Cn2c3c(cc(OC(C)=O)c2=O)Cc2ccccc2-3)cc1,41.6 µM
4,N#Cc1ccc(-c2nc3c(N)ncnc3o2)cc1,> 100 µM

# Test system: TK-10 renal
# Experiment: inhibition of tumour cell growth, NCI panel, 48 h
row,Structure (SMILES),TGI
1,OC(CNc1ccccn1)c1ccccc1 (stereo unspecified),> 100 µM
2,O=C(CSc1nnc(-c2ccccn2)s1)N/N=C/c1ccccc1,> 100 µM
3,COc1ccc(Cn2c3c(cc(OC(C)=O)c2=O)Cc2ccccc2-3)cc1,34 µM
4,N#Cc1ccc(-c2nc3c(N)ncnc3o2)cc1,> 100 µM

# Test system: HOP-62 NSCLC
# Experiment: inhibition of tumour cell growth, NCI panel, 48 h
row,Structure (SMILES),TGI
1,OC(CNc1ccccn1)c1ccccc1 (stereo unspecified),> 100 µM
2,O=C(CSc1nnc(-c2ccccn2)s1)N/N=C/c1ccccc1,> 100 µM
3,COc1ccc(Cn2c3c(cc(OC(C)=O)c2=O)Cc2ccccc2-3)cc1,> 50 µM
4,N#Cc1ccc(-c2nc3c(N)ncnc3o2)cc1,> 100 µM

# Test system: NCI-H460 lung
# Experiment: inhibition of tumour cell growth, NCI panel, 48 h
row,Structure (SMILES),TGI
1,OC(CNc1ccccn1)c1ccccc1 (stereo unspecified),> 100 µM
2,O=C(CSc1nnc(-c2ccccn2)s1)N/N=C/c1ccccc1,> 100 µM
3,COc1ccc(Cn2c3c(cc(OC(C)=O)c2=O)Cc2ccccc2-3)cc1,15 µM
4,N#Cc1ccc(-c2nc3c(N)ncnc3o2)cc1,> 100 µM

# Test system: UACC-257 melanoma
# Experiment: inhibition of tumour cell growth, NCI panel, 48 h
row,Structure (SMILES),TGI
1,OC(CNc1ccccn1)c1ccccc1 (stereo unspecified),> 100 µM
2,O=C(CSc1nnc(-c2ccccn2)s1)N/N=C/c1ccccc1,> 100 µM
3,COc1ccc(Cn2c3c(cc(OC(C)=O)c2=O)Cc2ccccc2-3)cc1,9.87 µM
4,N#Cc1ccc(-c2nc3c(N)ncnc3o2)cc1,> 100 µM

# Test system: UACC-62 melanoma
# Experiment: inhibition of tumour cell growth, NCI panel, 48 h
row,Structure (SMILES),TGI
1,OC(CNc1ccccn1)c1ccccc1 (stereo unspecified),> 100 µM
2,O=C(CSc1nnc(-c2ccccn2)s1)N/N=C/c1ccccc1,> 100 µM
3,COc1ccc(Cn2c3c(cc(OC(C)=O)c2=O)Cc2ccccc2-3)cc1,22.3 µM
4,N#Cc1ccc(-c2nc3c(N)ncnc3o2)cc1,> 100 µM

# Test system: KM12 colon
# Experiment: inhibition of tumour cell growth, NCI panel, 48 h
row,Structure (SMILES),TGI
1,OC(CNc1ccccn1)c1ccccc1 (stereo unspecified),> 100 µM
2,O=C(CSc1nnc(-c2ccccn2)s1)N/N=C/c1ccccc1,> 100 µM
3,COc1ccc(Cn2c3c(cc(OC(C)=O)c2=O)Cc2ccccc2-3)cc1,35.9 µM
4,N#Cc1ccc(-c2nc3c(N)ncnc3o2)cc1,> 100 µM

# Test system: MDA-N
# Experiment: inhibition of tumour cell growth, NCI panel, 48 h
row,Structure (SMILES),TGI
1,OC(CNc1ccccn1)c1ccccc1 (stereo unspecified),> 100 µM
2,O=C(CSc1nnc(-c2ccccn2)s1)N/N=C/c1ccccc1,> 100 µM
3,COc1ccc(Cn2c3c(cc(OC(C)=O)c2=O)Cc2ccccc2-3)cc1,> 50 µM
4,N#Cc1ccc(-c2nc3c(N)ncnc3o2)cc1,> 100 µM

# Test system: HOP-92 NSCLC
# Experiment: inhibition of tumour cell growth, NCI panel, 48 h
row,Structure (SMILES),TGI
1,OC(CNc1ccccn1)c1ccccc1 (stereo unspecified),> 100 µM
2,O=C(CSc1nnc(-c2ccccn2)s1)N/N=C/c1ccccc1,> 100 µM
3,COc1ccc(Cn2c3c(cc(OC(C)=O)c2=O)Cc2ccccc2-3)cc1,34.1 µM

# Test system: MCF7 breast
# Experiment: inhibition of tumour cell growth, NCI panel, 48 h
row,Structure (SMILES),TGI
1,OC(CNc1ccccn1)c1ccccc1 (stereo unspecified),> 100 µM
2,O=C(CSc1nnc(-c2ccccn2)s1)N/N=C/c1ccccc1,> 100 µM
3,COc1ccc(Cn2c3c(cc(OC(C)=O)c2=O)Cc2ccccc2-3)cc1,> 50 µM
4,N#Cc1ccc(-c2nc3c(N)ncnc3o2)cc1,> 100 µM

# Test system: SF-539 CNS
# Experiment: inhibition of tumour cell growth, NCI panel, 48 h
row,Structure (SMILES),TGI
1,OC(CNc1ccccn1)c1ccccc1 (stereo unspecified),> 100 µM
2,O=C(CSc1nnc(-c2ccccn2)s1)N/N=C/c1ccccc1,> 100 µM
3,COc1ccc(Cn2c3c(cc(OC(C)=O)c2=O)Cc2ccccc2-3)cc1,28.4 µM
4,N#Cc1ccc(-c2nc3c(N)ncnc3o2)cc1,> 100 µM

# Test system: COLO 205 colon
# Experiment: inhibition of tumour cell growth, NCI panel, 48 h
row,Structure (SMILES),TGI
1,OC(CNc1ccccn1)c1ccccc1 (stereo unspecified),> 100 µM
2,O=C(CSc1nnc(-c2ccccn2)s1)N/N=C/c1ccccc1,> 100 µM
3,COc1ccc(Cn2c3c(cc(OC(C)=O)c2=O)Cc2ccccc2-3)cc1,> 50 µM
4,N#Cc1ccc(-c2nc3c(N)ncnc3o2)cc1,> 100 µM

# Test system: NCI-H522 lung
# Experiment: inhibition of tumour cell growth, NCI panel, 48 h
row,Structure (SMILES),TGI
1,OC(CNc1ccccn1)c1ccccc1 (stereo unspecified),> 100 µM
2,O=C(CSc1nnc(-c2ccccn2)s1)N/N=C/c1ccccc1,> 100 µM
3,COc1ccc(Cn2c3c(cc(OC(C)=O)c2=O)Cc2ccccc2-3)cc1,15.1 µM
4,N#Cc1ccc(-c2nc3c(N)ncnc3o2)cc1,> 100 µM

# Test system: U251 CNS
# Experiment: inhibition of tumour cell growth, NCI panel, 48 h
row,Structure (SMILES),TGI
1,OC(CNc1ccccn1)c1ccccc1 (stereo unspecified),> 100 µM
2,O=C(CSc1nnc(-c2ccccn2)s1)N/N=C/c1ccccc1,> 100 µM
3,COc1ccc(Cn2c3c(cc(OC(C)=O)c2=O)Cc2ccccc2-3)cc1,26.3 µM

# Test system: A498 renal
# Experiment: inhibition of tumour cell growth, NCI panel, 48 h
row,Structure (SMILES),TGI
1,OC(CNc1ccccn1)c1ccccc1 (stereo unspecified),> 100 µM
2,O=C(CSc1nnc(-c2ccccn2)s1)N/N=C/c1ccccc1,> 100 µM
3,N#Cc1ccc(-c2nc3c(N)ncnc3o2)cc1,> 100 µM

# Test system: SF-268 CNS
# Experiment: inhibition of tumour cell growth, NCI panel, 48 h
row,Structure (SMILES),TGI
1,OC(CNc1ccccn1)c1ccccc1 (stereo unspecified),> 100 µM
2,O=C(CSc1nnc(-c2ccccn2)s1)N/N=C/c1ccccc1,> 100 µM
3,COc1ccc(Cn2c3c(cc(OC(C)=O)c2=O)Cc2ccccc2-3)cc1,33.8 µM
4,N#Cc1ccc(-c2nc3c(N)ncnc3o2)cc1,> 100 µM

# Test system: M14 melanoma
# Experiment: inhibition of tumour cell growth, NCI panel, 48 h
row,Structure (SMILES),TGI
1,OC(CNc1ccccn1)c1ccccc1 (stereo unspecified),> 100 µM
2,O=C(CSc1nnc(-c2ccccn2)s1)N/N=C/c1ccccc1,> 100 µM
3,COc1ccc(Cn2c3c(cc(OC(C)=O)c2=O)Cc2ccccc2-3)cc1,17.9 µM
4,N#Cc1ccc(-c2nc3c(N)ncnc3o2)cc1,> 100 µM

# Test system: SNB-19 CNS
# Experiment: inhibition of tumour cell growth, NCI panel, 48 h
row,Structure (SMILES),TGI
1,OC(CNc1ccccn1)c1ccccc1 (stereo unspecified),> 100 µM
2,O=C(CSc1nnc(-c2ccccn2)s1)N/N=C/c1ccccc1,> 100 µM
3,COc1ccc(Cn2c3c(cc(OC(C)=O)c2=O)Cc2ccccc2-3)cc1,> 50 µM
4,N#Cc1ccc(-c2nc3c(N)ncnc3o2)cc1,> 100 µM

# Test system: EKVX NSCLC
# Experiment: inhibition of tumour cell growth, NCI panel, 48 h
row,Structure (SMILES),TGI
1,OC(CNc1ccccn1)c1ccccc1 (stereo unspecified),> 100 µM
2,COc1ccc(Cn2c3c(cc(OC(C)=O)c2=O)Cc2ccccc2-3)cc1,28.3 µM
3,N#Cc1ccc(-c2nc3c(N)ncnc3o2)cc1,> 100 µM

# Test system: NCI/ADR-RES ovarian
# Experiment: inhibition of tumour cell growth, NCI panel, 48 h
row,Structure (SMILES),TGI
1,OC(CNc1ccccn1)c1ccccc1 (stereo unspecified),> 100 µM
2,O=C(CSc1nnc(-c2ccccn2)s1)N/N=C/c1ccccc1,> 100 µM
3,COc1ccc(Cn2c3c(cc(OC(C)=O)c2=O)Cc2ccccc2-3)cc1,8.53 µM
4,N#Cc1ccc(-c2nc3c(N)ncnc3o2)cc1,> 100 µM

# Test system: ACHN renal
# Experiment: inhibition of tumour cell growth, NCI panel, 48 h
row,Structure (SMILES),TGI
1,OC(CNc1ccccn1)c1ccccc1 (stereo unspecified),> 100 µM
2,O=C(CSc1nnc(-c2ccccn2)s1)N/N=C/c1ccccc1,> 100 µM
3,COc1ccc(Cn2c3c(cc(OC(C)=O)c2=O)Cc2ccccc2-3)cc1,32 µM
4,N#Cc1ccc(-c2nc3c(N)ncnc3o2)cc1,> 100 µM

# Test system: LOX IMVI melanoma
# Experiment: inhibition of tumour cell growth, NCI panel, 48 h
row,Structure (SMILES),TGI
1,OC(CNc1ccccn1)c1ccccc1 (stereo unspecified),> 100 µM
2,O=C(CSc1nnc(-c2ccccn2)s1)N/N=C/c1ccccc1,> 100 µM
3,COc1ccc(Cn2c3c(cc(OC(C)=O)c2=O)Cc2ccccc2-3)cc1,19.7 µM
4,N#Cc1ccc(-c2nc3c(N)ncnc3o2)cc1,> 100 µM
